According to publication PMC10419416, “Fighting Pseudomonas aeruginosa Infections: Antibacterial and Antibiofilm Activity of D-Q53 CecB, a Synthetic Analog of a Silkworm Natural Cecropin B Variant” (International Journal of Molecular Sciences, 2023):
≈ marks a conversion by molar mass, not a printed value. Like-named read-outs stand apart in the source and are kept apart here.

Assays:
[1] = tested on: P. aeruginosa ATCC 25668, mucoid strain; format: cell-based, Pseudomonas aeruginosa; details: for biofilm biomass vs untreated controls (biofilm formation): 24 h
Method: (§1) An ON bacterial culture was diluted to 2 × 10^6 cells/mL in an LB medium. 50 µL/well were seeded in a sterile non-treated polystyrene 96-well plate (Corning) and added with 50 µL LB medium containing serial dilutions of each compound (final concentrations of L- and D-Q53 CecB peptides: from 0.034 to 17.6 µM; final concentrations of tobramycin: 0.27 and 0.53 μM, and from 2.14 to 17 μM). Each condition was tested in three-six replicates. Wells containing untreated bacteria (negative controls) or LB medium only (blank) were followed in parallel. Each plate was incubated for 24 h at 37 °C without agitation. After washing twice, samples were stained with a 0.1% crystal violet solution for 20 min, washed three times, and incubated in 30% acetic acid for 20 min, as in [74]. Plates were read at 595 nm using a microplate reader. For each sample, the biofilm biomass percentage was calculated relative to that of the untreated control showing the highest OD value, set equal to 100%. Each experiment was performed at least twice.

[2] = tested on: P. aeruginosa ATCC 27853, non-mucoid strain; format: cell-based, Pseudomonas aeruginosa; details: for biofilm biomass vs untreated controls (biofilm formation): 24 h
Method: as §1

[3] = tested on: P. aeruginosa ATCC 25668, mucoid strain; assay: Degradation of pre-formed 24 h old biofilm, crystal violet; format: cell-based, Pseudomonas aeruginosa; details: 1 h; L-Q53 CecB 1/2 to 8 MIC (except 4 MIC), tobramycin 1 to 8 MIC
Method: (§2) One hundred μL of bacteria (1 × 10^6 cells/mL), derived from a fresh ON culture, were seeded in a sterile non-treated polystyrene 96-well plate (Corning) and incubated for 24 h at 37 °C without agitation. […] Evaluation of biofilm biomass was performed using a crystal violet assay as described above (Section 4.8). Experiments were performed two-four times.

[4] = tested on: P. aeruginosa ATCC 27853, non-mucoid strain; assay: as above; format: cell-based, Pseudomonas aeruginosa; details: 1 h; L-Q53 CecB 1/2 to 8 MIC, tobramycin 1 to 8 MIC
Method: as §2

[5] = tested on: P. aeruginosa ATCC 27853 and ATCC 25668 strains; assay: microbe, parasite or virus in culture; format: cell-based, Pseudomonas aeruginosa; details: Pseudomonas aeruginosa, 24 h
Method: (§3) The following strains were used: P. aeruginosa ATCC 27853, ATCC 25668, and PAO1-L (Lausanne subline). All strains were grown at 37 °C in Luria Bertani (LB) medium or in Luria Bertani Agar (LBA) plates.
(§4) The antibacterial activities of L- and D-Q53 CecB were evaluated by determining (i) the MIC and (ii) the MBC. Tobramycin (Merck) was used as an antibiotic control. (i) An overnight (ON) bacterial culture was diluted to 1 × 10^6 cells/mL in LB medium. 50 µL/well were seeded in sterile polypropylene 96-well plates (Corning, Corning, NY, USA) and added with 50 µL LB medium, containing serial dilutions of each compound (final concentrations of L- and D-Q53 CecB peptides from 1.1 to 35.2 µM; final concentrations of tobramycin from 0.26 to 17 μM; each condition in triplicate). Microbial suspensions in the growing medium (positive control) and wells with only the medium (negative controls) were processed in parallel. Plates were incubated 24 h at 37 °C with agitation (300 rpm), and the absorbance was measured at 600 nm in a microplate reader. The MIC was considered as the lowest concentration determining a delta optical density at 600 nm (ΔOD600) equal to 0 ± 0.05. The ΔOD600 was determined by subtracting the OD600 recorded at time 0 from that obtained after 24 h. Each experiment was performed at least three times. […] For each sample, 100 μL of 1:10, 1:100, and 1:1000 dilutions were plated on LBA plates, and colonies were counted after 24 h at 37 °C. […] Each experiment was performed at least twice.

[6] = tested on: P. aeruginosa PAO1-L strain; assay: microbe, parasite or virus in culture; format: cell-based, Pseudomonas aeruginosa; details: Pseudomonas aeruginosa, value between parentheses, 24 h, 37 °C, plating on LBA
Method: as §3, §4

[7] = tested on: P. aeruginosa ATCC 25668, ATCC 27853, and PAO1-L strains; assay: microbe, parasite or virus in culture; format: cell-based, Pseudomonas aeruginosa; details: Pseudomonas aeruginosa; LB medium, 24 h, 37 °C, OD600; same value for all three strains; triplicate, at least three experiments
Method: as §3, §4

[8] = tested on: T1, human neutrophil elastase; assay: Enzymatic digestion with human neutrophil elastase, RP-HPLC; format: in vitro ADME; details: isolated enzyme elastase; peptide 1 mg/mL in 10 mM Tris-HCl pH 7.5, 20 U human leukocyte elastase, 37 °C, 5 h (300 min), RP-HPLC C18 peak integration; read-out: % of intact peptide
T1 construct: purchased Merck
Method: (§5) L- and D-Q53 CecB peptides, as well as the human LL-37 peptide (Merck, Burlington, MA, USA), were dissolved in 10 mM Tris-HCl, pH 7.5, at a final concentration of 1 mg/mL. Subsequently, 120 μL of each peptide solution were incubated at 37 °C with 20 U of human leukocyte elastase (Merck) or P. aeruginosa elastase (Elastin Products Company, Owensville, MO, USA) and 5 μL of 10 mM Tris-HCl, pH 7.5. At given time intervals (30, 60, 120, and 300 min), a volume corresponding to 30 μg of each peptide was diluted in 70 μL of 1% trifluoroacetic acid (TFA) to stop the reaction. Peptide suspensions,v without any enzyme (undigested controls), were processed in parallel. Each solution was analyzed by RP-HPLC, using a Phenomenex LC C18 analytical column (300 Å, […], 250 × 4.6 mm; Phenomenex, Torrance, CA, USA) and a Widepore C18 security guard cartridge (4 × 3.0 mm; Phenomenex, Torrance, CA, USA), in a 30 min-linear Acetonitrile (ACN) gradient (from 0% to 40% for L- and D-Q53 CecB peptides; from 20% to 60% for LL-37). A Waters Alliance 2695 Separations Module connected to a 996 PDA (Waters, Milford, MA, USA) was employed for RP-HPLC.

[9] = tested on: T2, P. aeruginosa elastase; assay: Enzymatic digestion with P. aeruginosa elastase, RP-HPLC; format: in vitro ADME; details: isolated enzyme elastase; peptide 1 mg/mL in 10 mM Tris-HCl pH 7.5, 20 U P. aeruginosa elastase, 37 °C, 30 min, RP-HPLC C18 peak integration; read-out: % of full-length peptide
T2 construct: purchased Elastin Products Company
Method: as §5

[10] = concentrations from 8 to 1 MIC (1 MIC = 2.2 µM peptides, 2.14 µM tobramycin), 24 h static, 37 °C, stated for both strains

Row | Compound | biofilm biomass vs untreated controls (biofilm formation) ([1]; 1/4 MIC) | biofilm biomass vs untreated controls (biofilm formation) ([1]; 1/8 MIC) | decrement in biofilm biomass vs untreated controls (inhibition of biofilm formation) [1, 10] | biofilm biomass vs untreated controls (biofilm formation) ([2]; 1/4 MIC) | biofilm biomass vs untreated controls (biofilm formation) ([2]; 1/8 MIC) | decrement in biofilm biomass vs untreated controls (inhibition of biofilm formation) [2, 10] | reduction of pre-formed biofilm biomass at all tested concentrations [3] | reduction of pre-formed biofilm biomass at all tested concentrations [4] | MBC [5] | MBC [6] | MIC [7] | remaining at 5 h, 1 mg/mL [8] | remaining at 0.5 h, 1 mg/mL [9]
1 | NC[C@H]1O[C@H](O[C@H]2[C@H](O)[C@@H](O[C@H]3O[C@H](CO)[C@@H](O)[C@H](N)[C@H]3O)[C@H](N)C[C@@H]2N)[C@H](N)C[C@@H]1O [Tobramycin, reference compound] | significantly higher | not significantly different | ~ 99.9% | not affected | not significantly different | ~ 99.9% | not efficient | not efficient | 4.29 µM (≈ 2.01 µg/mL) | 8.56 µM (≈ 4 µg/mL) | 2.14 µM (≈ 1 µg/mL) |  | 
2 | CC[C@H](C)[C@H](NC(=O)[C@H](CCCCN)NC(=O)[C@H](CCC(=O)O)NC(=O)[C@H](CCCCN)NC(=O)[C@H](CO)NC(=O)[C@H](CCCCN)NC(=O)[C@H](CCCNC(=N)N)NC(=O)[C@H](Cc1ccccc1)NC(=O)[C@H](Cc1ccccc1)NC(=O)[C@H](CC(=O)O)NC(=O)CNC(=O)[C@H](CC(C)C)NC(=O)[C@@H](N)CC(C)C)C(=O)NCC(=O)N[C@@H](CCCCN)C(=O)N[C@@H](CCC(=O)O)C(=O)N[C@@H](Cc1ccccc1)C(=O)N[C@@H](CCCCN)C(=O)N[C@@H](CCCNC(=N)N)C(=O)N[C@H](C(=O)N[C@H](C(=O)N[C@@H](CCC(N)=O)C(=O)N[C@@H](CCCNC(=N)N)C(=O)N[C@H](C(=O)N[C@@H](CCCCN)C(=O)N[C@@H](CC(=O)O)C(=O)N[C@@H](Cc1ccccc1)C(=O)N[C@@H](CC(C)C)C(=O)N[C@@H](CCCNC(=N)N)C(=O)N[C@@H](CC(N)=O)C(=O)N[C@@H](CC(C)C)C(=O)N[C@H](C(=O)N1CCC[C@H]1C(=O)N[C@@H](CCCNC(=N)N)C(=O)N[C@H](C(=O)N[C@@H](CCC(=O)O)C(=O)N[C@@H](CO)C(=O)O)[C@@H](C)O)C(C)C)[C@@H](C)CC)C(C)C)[C@@H](C)CC [LL-37, reference compound] |  |  |  |  |  |  |  |  |  |  |  | 8.7% | ~0.2%
